{"source": "PubChem BioAssay (NCI)", "test_in_all_cases": "DTP human tumour cell line panel, 48 h", "key": {"[1]": {"test_system": "SN12C renal"}, "[2]": {"test_system": "M14 melanoma"}, "[3]": {"test_system": "DU-145 prostate"}, "[4]": {"test_system": "SK-MEL-5 melanoma"}, "[5]": {"test_system": "ACHN renal"}, "[6]": {"test_system": "HOP-62 NSCLC"}, "[7]": {"test_system": "IGROV1 ovarian"}, "[8]": {"test_system": "TK-10 renal"}, "[9]": {"test_system": "HCT-116 colon"}, "[10]": {"test_system": "NCI-H23 lung"}, "[11]": {"test_system": "786-0 renal"}, "[12]": {"test_system": "MALME-3M melanoma"}, "[13]": {"test_system": "HS 578T breast"}, "[14]": {"test_system": "HOP-92 NSCLC"}, "[15]": {"test_system": "HCC-2998 colon"}, "[16]": {"test_system": "SNB-75 CNS"}, "[17]": {"test_system": "SF-295 CNS"}, "[18]": {"test_system": "OVCAR-3 ovarian"}, "[19]": {"test_system": "MCF7 breast"}, "[20]": {"test_system": "CAKI-1 renal"}, "[21]": {"test_system": "HL-60(TB) leukemia"}, "[22]": {"test_system": "UACC-257 melanoma"}, "[23]": {"test_system": "KM12 colon"}, "[24]": {"test_system": "HT29 colon"}, "[25]": {"test_system": "HCT-15 colon"}, "[26]": {"test_system": "SK-MEL-28 melanoma"}, "[27]": {"test_system": "RXF 393 renal"}, "[28]": {"test_system": "NCI-H226 lung"}, "[29]": {"test_system": "SR leukemia"}}, "note": "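48-hour exposure; five concentrations; linearly interpolated endpoints. The concentration for 50% growth inhibition is given as GI50. TGI: total growth inhibition.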", "data": [{"compound": "O=C(Nc1cccc(-n2ccc3c(NC(=O)c4ccccc4)nccc32)c1)Nc1ccc(Cl)c(C(F)(F)F)c1", "values": [{"measurement": "GI50", "setting": "[1]", "value": 820, "unit": "nM"}, {"measurement": "TGI", "setting": "[1]", "value": "> 100000", "unit": "nM"}, {"measurement": "GI50", "setting": "[2]", "value": 315, "unit": "nM"}, {"measurement": "TGI", "setting": "[2]", "value": 1260, "unit": "nM"}, {"measurement": "GI50", "setting": "[3]", "value": 338, "unit": "nM"}, {"measurement": "TGI", "setting": "[3]", "value": 2280, "unit": "nM"}, {"measurement": "GI50", "setting": "[4]", "value": 317, "unit": "nM"}, {"measurement": "TGI", "setting": "[4]", "value": 1480, "unit": "nM"}, {"measurement": "GI50", "setting": "[5]", "value": 670, "unit": "nM"}, {"measurement": "TGI", "setting": "[5]", "value": 8480, "unit": "nM"}, {"measurement": "GI50", "setting": "[6]", "value": 736, "unit": "nM"}, {"measurement": "TGI", "setting": "[6]", "value": "> 44600", "unit": "nM"}, {"measurement": "GI50", "setting": "[7]", "value": 662, "unit": "nM"}, {"measurement": "TGI", "setting": "[7]", "value": "> 100000", "unit": "nM"}, {"measurement": "GI50", "setting": "[8]", "value": 1190, "unit": "nM"}, {"measurement": "TGI", "setting": "[8]", "value": 14600, "unit": "nM"}, {"measurement": "GI50", "setting": "[9]", "value": 372, "unit": "nM"}, {"measurement": "TGI", "setting": "[9]", "value": 13700, "unit": "nM"}, {"measurement": "GI50", "setting": "[10]", "value": 593, "unit": "nM"}, {"measurement": "TGI", "setting": "[10]", "value": 5210, "unit": "nM"}, {"measurement": "GI50", "setting": "[11]", "value": 589, "unit": "nM"}, {"measurement": "TGI", "setting": "[11]", "value": "> 100000", "unit": "nM"}, {"measurement": "GI50", "setting": "[12]", "value": 1070, "unit": "nM"}, {"measurement": "TGI", "setting": "[12]", "value": 47500, "unit": "nM"}, {"measurement": "GI50", "setting": "[13]", "value": 283, "unit": "nM"}, {"measurement": "TGI", "setting": "[13]", "value": 3250, "unit": "nM"}, {"measurement": "GI50", "setting": "[14]", "value": 860, "unit": "nM"}, {"measurement": "TGI", "setting": "[14]", "value": 5740, "unit": "nM"}, {"measurement": "GI50", "setting": "[15]", "value": 413, "unit": "nM"}, {"measurement": "TGI", "setting": "[15]", "value": 15200, "unit": "nM"}, {"measurement": "GI50", "setting": "[16]", "value": 240, "unit": "nM"}, {"measurement": "TGI", "setting": "[16]", "value": 769, "unit": "nM"}, {"measurement": "GI50", "setting": "[17]", "value": 294, "unit": "nM"}, {"measurement": "TGI", "setting": "[17]", "value": 1340, "unit": "nM"}, {"measurement": "GI50", "setting": "[18]", "value": 240, "unit": "nM"}, {"measurement": "TGI", "setting": "[18]", "value": 554, "unit": "nM"}, {"measurement": "GI50", "setting": "[19]", "value": 373, "unit": "nM"}, {"measurement": "TGI", "setting": "[19]", "value": "> 30700", "unit": "nM"}, {"measurement": "GI50", "setting": "[20]", "value": 718, "unit": "nM"}, {"measurement": "TGI", "setting": "[20]", "value": 9380, "unit": "nM"}, {"measurement": "GI50", "setting": "[21]", "value": 332, "unit": "nM"}, {"measurement": "GI50", "setting": "[22]", "value": 1870, "unit": "nM"}, {"measurement": "TGI", "setting": "[22]", "value": 20900, "unit": "nM"}, {"measurement": "GI50", "setting": "[23]", "value": 343, "unit": "nM"}, {"measurement": "TGI", "setting": "[23]", "value": 2680, "unit": "nM"}, {"measurement": "GI50", "setting": "[24]", "value": 327, "unit": "nM"}, {"measurement": "TGI", "setting": "[24]", "value": 1400, "unit": "nM"}, {"measurement": "GI50", "setting": "[25]", "value": 339, "unit": "nM"}, {"measurement": "TGI", "setting": "[25]", "value": 14500, "unit": "nM"}, {"measurement": "GI50", "setting": "[26]", "value": 651, "unit": "nM"}, {"measurement": "TGI", "setting": "[26]", "value": "> 92000", "unit": "nM"}, {"measurement": "GI50", "setting": "[27]", "value": 224, "unit": "nM"}, {"measurement": "TGI", "setting": "[27]", "value": 693, "unit": "nM"}, {"measurement": "GI50", "setting": "[28]", "value": 865, "unit": "nM"}, {"measurement": "TGI", "setting": "[28]", "value": "> 28500", "unit": "nM"}, {"measurement": "GI50", "setting": "[29]", "value": 367, "unit": "nM"}, {"measurement": "TGI", "setting": "[29]", "value": "> 23300", "unit": "nM"}]}]}
